Key:
Test in all cases: Phage-Mediated Detection of Staphylococcus aureus
Format in all cases: cell-based
[1] = test system: Staphylococcus aureus strain AR0476 (MRSA, CDC Panel)
Description: (§1) Samples of methicillin-resistant S. aureus (MRSA) were primed by adding 135 μl of samples containing S. aureus to rich media. The rich media included sub-inhibitory antibiotic (cefoxitin) to allow for specific enrichment and induction of MRSA. Samples were incubated in rich media for 1-2 hours. Following the priming of the samples, additional cefoxitin was added to the media and samples were incubated for an additional 2 hours. Staphylococcus aureus-specific bacteriophage NanoLuc Indicator phage was added to the samples and incubated for 2 hours. Lysis buffer and NANO-GLO® reagent were added. Following 5 minutes of incubation, measurements of bioluminescence were taken using a GLOMAX® 96 instrument. A signal/background ratio ≥750 RLU indicated positive detection of S. aureus. A signal/background ratio of <750 RLU indicated the sample was negative for S. aureus.

[2] = test system: Staphylococcus aureus strain 12600 (MSSA, ATCC)
Description: as §1

[3] = test system: Staphylococcus aureus strain BAA-42 (MRSA, ATCC)
Description: as §1

[4] = test system: Staphylococcus aureus strain AR0487 (MSSA, CDC Panel)
Description: as §1

[5] = test system: Staphylococcus aureus strain AR0477 (MRSA, CDC Panel)
Description: as §1

[6] = test system: Staphylococcus aureus strain BAA-1721 (MSSA, ATCC)
Description: as §1

[7] = test system: Staphylococcus aureus strain AR0492 (MSSA, CDC Panel)
Description: as §1

[8] = test system: Staphylococcus aureus strain AR0484 (MSSA, CDC Panel)
Description: as §1

[9] = test system: Staphylococcus aureus strain AR0488 (MSSA, CDC Panel)
Description: as §1

[10] = test system: Staphylococcus aureus strain AR0472 (MRSA, CDC Panel)
Description: as §1

[11] = test system: Staphylococcus aureus strain AR0483 (MRSA, CDC Panel)
Description: as §1

[12] = test system: Staphylococcus aureus strain AR0481 (MRSA, CDC Panel)
Description: as §1

[13] = test system: Staphylococcus aureus strain AR0461 (MRSA, CDC Panel)
Description: as §1

[14] = test system: Staphylococcus aureus strain AR0474 (MRSA, CDC Panel)
Description: as §1

[15] = test system: Staphylococcus aureus strain BAA-2094 (MRSA, ATCC)
Description: as §1

[16] = test system: Staphylococcus aureus strain AR0489 (MSSA, CDC Panel)
Description: as §1

[17] = test system: Staphylococcus aureus strain AR0491 (MSSA, CDC Panel)
Description: as §1

[18] = test system: Staphylococcus aureus strain AR0475 (MRSA, CDC Panel)
Description: as §1

[19] = test system: Staphylococcus aureus strain AR0478 (MRSA, CDC Panel)
Description: as §1

[20] = test system: Staphylococcus aureus strain AR0468 (MRSA, CDC Panel)
Description: as §1

[21] = test system: Staphylococcus aureus strain AR0467 (MRSA, CDC Panel)
Description: as §1

CO[C@@]1(NC(=O)Cc2cccs2)C(=O)N2C(C(=O)O)=C(COC(N)=O)CS[C@@H]21 [Cefoxitin, cefoxitin]
Cefoxitin Concentration 1 ug/mL (indicator phage luminescence signal) ([1]; detected CFU 95, cefoxitin 1 ug/mL): 245000 RLU
Cefoxitin Concentration 2 ug/mL (indicator phage luminescence signal) ([1]; detected CFU 95, cefoxitin 2 ug/mL): 52910 RLU
Cefoxitin Concentration 4 ug/mL (indicator phage luminescence signal) ([1]; detected CFU 95, cefoxitin 4 ug/mL): 21 RLU
Cefoxitin Concentration 1.8 ug/mL (indicator phage luminescence signal) ([2]; detected CFU 59, cefoxitin 1.8 ug/mL): 508 RLU
Cefoxitin Concentration 1 ug/mL (indicator phage luminescence signal) ([2]; detected CFU 406, cefoxitin 1 ug/mL): 18310 RLU
Cefoxitin Concentration 2 ug/mL (indicator phage luminescence signal) ([2]; detected CFU 406, cefoxitin 2 ug/mL): 178 RLU
Cefoxitin Concentration 4 ug/mL (indicator phage luminescence signal) ([2]; detected CFU 406, cefoxitin 4 ug/mL): 196 RLU
Cefoxitin Concentration 1 ug/mL (indicator phage luminescence signal) ([3]; detected CFU 165, cefoxitin 1 ug/mL): 8634 RLU
Cefoxitin Concentration 2 ug/mL (indicator phage luminescence signal) ([3]; detected CFU 165, cefoxitin 2 ug/mL): 775 RLU
Cefoxitin Concentration 4 ug/mL (indicator phage luminescence signal) ([3]; detected CFU 165, cefoxitin 4 ug/mL): 240 RLU
Cefoxitin Concentration 1 ug/mL (indicator phage luminescence signal) ([4]; detected CFU 221, cefoxitin 1 ug/mL): 10420 RLU
Cefoxitin Concentration 2 ug/mL (indicator phage luminescence signal) ([4]; detected CFU 221, cefoxitin 2 ug/mL): 167 RLU
Cefoxitin Concentration 4 ug/mL (indicator phage luminescence signal) ([4]; detected CFU 221, cefoxitin 4 ug/mL): 188 RLU
Cefoxitin Concentration 1 ug/mL (indicator phage luminescence signal) ([5]; detected CFU 471, cefoxitin 1 ug/mL): 478000 RLU
Cefoxitin Concentration 2 ug/mL (indicator phage luminescence signal) ([5]; detected CFU 471, cefoxitin 2 ug/mL): 95970 RLU
Cefoxitin Concentration 4 ug/mL (indicator phage luminescence signal) ([5]; detected CFU 471, cefoxitin 4 ug/mL): 4068 RLU
Cefoxitin Concentration 1 ug/mL (indicator phage luminescence signal) ([6]; detected CFU 197, cefoxitin 1 ug/mL): 21900 RLU
Cefoxitin Concentration 2 ug/mL (indicator phage luminescence signal) ([6]; detected CFU 197, cefoxitin 2 ug/mL): 172 RLU
Cefoxitin Concentration 4 ug/mL (indicator phage luminescence signal) ([6]; detected CFU 197, cefoxitin 4 ug/mL): 164 RLU
Cefoxitin Concentration 1 ug/mL (indicator phage luminescence signal) ([7]; detected CFU 178, cefoxitin 1 ug/mL): 13040 RLU
Cefoxitin Concentration 2 ug/mL (indicator phage luminescence signal) ([7]; detected CFU 178, cefoxitin 2 ug/mL): 194 RLU
Cefoxitin Concentration 1 ug/mL (indicator phage luminescence signal) ([8]; detected CFU 525, cefoxitin 1 ug/mL): 8875 RLU
Cefoxitin Concentration 2 ug/mL (indicator phage luminescence signal) ([8]; detected CFU 525, cefoxitin 2 ug/mL): 172 RLU
Cefoxitin Concentration 4 ug/mL (indicator phage luminescence signal) ([8]; detected CFU 525, cefoxitin 4 ug/mL): 182 RLU
Cefoxitin Concentration 1 ug/mL (indicator phage luminescence signal) ([9]; detected CFU 151, cefoxitin 1 ug/mL): 15430 RLU
Cefoxitin Concentration 2 ug/mL (indicator phage luminescence signal) ([9]; detected CFU 151, cefoxitin 2 ug/mL): 207 RLU
Cefoxitin Concentration 4 ug/mL (indicator phage luminescence signal) ([9]; detected CFU 151, cefoxitin 4 ug/mL): 197 RLU
Cefoxitin Concentration 1.8 ug/mL (indicator phage luminescence signal) ([10]; detected CFU 14, cefoxitin 1.8 ug/mL): 2694 RLU
Cefoxitin Concentration 1 ug/mL (indicator phage luminescence signal) ([10]; detected CFU 142, cefoxitin 1 ug/mL): 72720 RLU
Cefoxitin Concentration 2 ug/mL (indicator phage luminescence signal) ([10]; detected CFU 142, cefoxitin 2 ug/mL): 19210 RLU
Cefoxitin Concentration 4 ug/mL (indicator phage luminescence signal) ([10]; detected CFU 142, cefoxitin 4 ug/mL): 240 RLU
Cefoxitin Concentration 1 ug/mL (indicator phage luminescence signal) ([11]; detected CFU 12, cefoxitin 1 ug/mL): 39250 RLU
Cefoxitin Concentration 2 ug/mL (indicator phage luminescence signal) ([11]; detected CFU 12, cefoxitin 2 ug/mL): 24390 RLU
Cefoxitin Concentration 4 ug/mL (indicator phage luminescence signal) ([11]; detected CFU 12, cefoxitin 4 ug/mL): 9081 RLU
Cefoxitin Concentration 1 ug/mL (indicator phage luminescence signal) ([12]; detected CFU 82, cefoxitin 1 ug/mL): 150100 RLU
Cefoxitin Concentration 2 ug/mL (indicator phage luminescence signal) ([12]; detected CFU 82, cefoxitin 2 ug/mL): 109000 RLU
Cefoxitin Concentration 4 ug/mL (indicator phage luminescence signal) ([12]; detected CFU 82, cefoxitin 4 ug/mL): 27170 RLU
Cefoxitin Concentration 1 ug/mL (indicator phage luminescence signal) ([13]; detected CFU 25, cefoxitin 1 ug/mL): 3460 RLU
Cefoxitin Concentration 2 ug/mL (indicator phage luminescence signal) ([13]; detected CFU 25, cefoxitin 2 ug/mL): 1846 RLU
Cefoxitin Concentration 4 ug/mL (indicator phage luminescence signal) ([13]; detected CFU 25, cefoxitin 4 ug/mL): 910 RLU
Cefoxitin Concentration 1 ug/mL (indicator phage luminescence signal) ([14]; detected CFU 477, cefoxitin 1 ug/mL): 3449 RLU
Cefoxitin Concentration 2 ug/mL (indicator phage luminescence signal) ([14]; detected CFU 477, cefoxitin 2 ug/mL): 2235 RLU
Cefoxitin Concentration 4 ug/mL (indicator phage luminescence signal) ([14]; detected CFU 477, cefoxitin 4 ug/mL): 1684 RLU
Cefoxitin Concentration 1 ug/mL (indicator phage luminescence signal) ([15]; detected CFU 147, cefoxitin 1 ug/mL): 252900 RLU
Cefoxitin Concentration 2 ug/mL (indicator phage luminescence signal) ([15]; detected CFU 147, cefoxitin 2 ug/mL): 96700 RLU
Cefoxitin Concentration 4 ug/mL (indicator phage luminescence signal) ([15]; detected CFU 147, cefoxitin 4 ug/mL): 1971 RLU
Cefoxitin Concentration 1 ug/mL (indicator phage luminescence signal) ([16]; detected CFU 144, cefoxitin 1 ug/mL): 30590 RLU
Cefoxitin Concentration 2 ug/mL (indicator phage luminescence signal) ([16]; detected CFU 144, cefoxitin 2 ug/mL): 188 RLU
Cefoxitin Concentration 4 ug/mL (indicator phage luminescence signal) ([16]; detected CFU 144, cefoxitin 4 ug/mL): 207 RLU
Cefoxitin Concentration 1 ug/mL (indicator phage luminescence signal) ([17]; detected CFU 217, cefoxitin 1 ug/mL): 40760 RLU
Cefoxitin Concentration 2 ug/mL (indicator phage luminescence signal) ([17]; detected CFU 217, cefoxitin 2 ug/mL): 215 RLU
Cefoxitin Concentration 4 ug/mL (indicator phage luminescence signal) ([17]; detected CFU 217, cefoxitin 4 ug/mL): 266 RLU
Cefoxitin Concentration 1 ug/mL (indicator phage luminescence signal) ([18]; detected CFU 134, cefoxitin 1 ug/mL): 52460 RLU
Cefoxitin Concentration 2 ug/mL (indicator phage luminescence signal) ([18]; detected CFU 134, cefoxitin 2 ug/mL): 57660 RLU
Cefoxitin Concentration 4 ug/mL (indicator phage luminescence signal) ([18]; detected CFU 134, cefoxitin 4 ug/mL): 34040 RLU
Cefoxitin Concentration 1 ug/mL (indicator phage luminescence signal) ([19]; detected CFU 183, cefoxitin 1 ug/mL): 279700 RLU
Cefoxitin Concentration 2 ug/mL (indicator phage luminescence signal) ([19]; detected CFU 183, cefoxitin 2 ug/mL): 73090 RLU
Cefoxitin Concentration 4 ug/mL (indicator phage luminescence signal) ([19]; detected CFU 183, cefoxitin 4 ug/mL): 1519 RLU
Cefoxitin Concentration 1 ug/mL (indicator phage luminescence signal) ([20]; detected CFU 169, cefoxitin 1 ug/mL): 10330 RLU
Cefoxitin Concentration 2 ug/mL (indicator phage luminescence signal) ([20]; detected CFU 169, cefoxitin 2 ug/mL): 10070 RLU
Cefoxitin Concentration 4 ug/mL (indicator phage luminescence signal) ([20]; detected CFU 169, cefoxitin 4 ug/mL): 5002 RLU
Cefoxitin Concentration 1 ug/mL (indicator phage luminescence signal) ([21]; detected CFU 171, cefoxitin 1 ug/mL): 9908 RLU
Cefoxitin Concentration 2 ug/mL (indicator phage luminescence signal) ([21]; detected CFU 171, cefoxitin 2 ug/mL): 6497 RLU
Cefoxitin Concentration 4 ug/mL (indicator phage luminescence signal) ([21]; detected CFU 171, cefoxitin 4 ug/mL): 4401 RLU

Source: patent US20210079443A1, “INDICATOR BAC[…] SELECTING AND […] EFFICACY OF THERAPEUTICS AND METHODS FOR USING SAME” (priority 2018, published 2021)
